Where a name gives a salt, the structure may show the parent alone.
Columns and labels:
UV induced erythema = UV induced erythema on the skin of guinea pigs; format: in vivo, guinea pig; details: for erythema score, 1 hour / erythema score, 2 hours / erythema score, 3 hours / erythema score, 4 hours / erythema score, 24 hours: aggregate score for 3 animals; for erythema score, (After 4 hours) Total Points / erythema score, (After 24 hours) Total Points: aggregate for 3 animals
Experimental: Some of the compounds of this invention were tested in vivo for their ability to inhibit the effects of UV induced erythema on the skin of guinea pigs. This is an example of an inflammatory process fulfilling the four pathological requirements of "rubor, calor, dolor, and tumor" i.e., reddening, heat, pain, and edematious swelling in the skin. Administration of the compounds of this invention to guinea pigs whose skin was subsequently exposed to ultraviolet light markedly retarded and in some cases eliminated altogether this inflammatory process. Administration of the compounds of this invention was performed both interparenterally and subcutaneously with equivalent results, thereby eliminating any possiblity of reduction in erthyma due to the so called "counter irritant" effect on the serosal soft surface of the gut.
The test was carried out as follows: Guinea pigs of the Hartley strain ranging in weight from 250 to 750 gm. were clipped with coarse and fine clippers to remove as much hair as possible from the back or abdomen. They were then treated with a commercial depilatory for six to seven min. after which they were washed with warm water. The animals were then injected I.P. or subcutaneously with solutions or suspensions of the test compounds made up at 0.02 molar concentrations. The dose was 0.3 ml. per 100 gm. of body weight. A control (untreated) group was also maintained. The animals were then held for 30 min. before being exposed as rapidly as possible to ultra-violet light using a Kromayer lamp for 30 sec. A scoring system was developed to quantitate the erythema. The scoring was from 0 to 5 and is described as follows:
0=no apparent reddening of the skin
0.5=some slight reddening, without a definite border
1.0=a discrete pink circle with a definite border
2.0=a discrete circle of redness with a definite border more intense than 1.0
3.0=same circle with still greater intensity
4.0=same circle with a near maximal response but without any raising of the erythematous spot above the level of the surrounding skin
5.0=a raised edematous circle with the redness at maximal intensity
The animals were scored at hourly intervals for the first four hours. The erythema reached a maximum at this time in the control animals. The major difference between results at 4 hr. and those at 24 is the developement of edema and this occurred in some of the animals treated with phospholipase inhibitors without erythema being present. The results of this test are shown in tabular form in Tables VI and VII. The aggregate scores of the animals treated with the designated compounds are recorded at hourly intervals and compared with the control (untreated) scores. As shown by the tables, the method of this invention markedly retarded UV-induced erythema.

[1] = target: T1, HOG PANCREAS PHOSPHOLIPASE A2 (Sus scrofa, UniProt P00592); assay: coupled phospholipase A2 / soybean lipoxygenase oxygen consumption assay, hog pancreas enzyme; format: biochemical; details: estimated I50 calculated from a partial inhibition value, pH 8.5, 37° C.
T1 construct: from tissue; host or cells: hog pancreas
T1 sequence (P00592 23-146): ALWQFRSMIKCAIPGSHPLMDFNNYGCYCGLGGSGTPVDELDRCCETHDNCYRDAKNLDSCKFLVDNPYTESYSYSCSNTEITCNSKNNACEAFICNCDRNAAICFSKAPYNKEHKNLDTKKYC

[2] = target: T2, HUMAN PLATELET PHOSPHOLIPASE A2 (Homo sapiens, UniProt P47712); assay: inhibition of collagen-induced aggregation of human platelets; format: cell-based; details: human platelet rich plasma, read-out: I50 collagen (converted)
T2 construct: Human blood was drawn from an antecubital vein into 3.8% sodium citrate; endogenous in cells; host or cells: human platelets in citrated plasma (PRP)
T2 sequence (P47712 1-749): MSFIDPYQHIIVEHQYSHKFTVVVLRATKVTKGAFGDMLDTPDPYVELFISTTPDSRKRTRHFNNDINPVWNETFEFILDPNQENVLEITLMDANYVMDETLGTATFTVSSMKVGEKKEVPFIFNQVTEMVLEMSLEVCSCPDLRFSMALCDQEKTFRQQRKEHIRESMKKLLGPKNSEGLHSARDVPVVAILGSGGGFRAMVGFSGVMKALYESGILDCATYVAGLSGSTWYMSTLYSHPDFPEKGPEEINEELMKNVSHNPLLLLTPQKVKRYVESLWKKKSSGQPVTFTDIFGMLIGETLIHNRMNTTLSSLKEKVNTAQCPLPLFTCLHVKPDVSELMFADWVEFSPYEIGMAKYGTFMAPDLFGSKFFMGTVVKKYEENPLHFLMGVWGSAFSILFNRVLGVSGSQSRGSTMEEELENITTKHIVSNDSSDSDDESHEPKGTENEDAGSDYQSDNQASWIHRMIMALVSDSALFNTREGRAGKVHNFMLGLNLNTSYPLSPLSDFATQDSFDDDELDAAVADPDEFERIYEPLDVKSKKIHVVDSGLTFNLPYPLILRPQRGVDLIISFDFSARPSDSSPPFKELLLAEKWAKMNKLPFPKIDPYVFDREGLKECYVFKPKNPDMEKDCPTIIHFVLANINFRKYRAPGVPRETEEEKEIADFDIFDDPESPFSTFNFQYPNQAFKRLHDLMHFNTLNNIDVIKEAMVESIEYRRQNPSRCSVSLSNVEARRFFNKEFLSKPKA
Experimental: The compounds of the present invention were tested for their ability to inhibit collagen-induced aggregation of platelets at 100 μg. per ml. or less. The compounds that were active against collagen-induced aggregation were tested at the I50 dose against arachidonic acid-induced aggregation. Compounds that inhibited collagen-induced aggregation, but not arachidonic acid-induced aggregation, were reported as active phospholipase A2 inhibitors.
The test was run as follows. Human blood was drawn from an antecubital vein into 3.8% sodium citrate with the final citrate concentration being 0.38%. The blood was transferred to plastic centrifuge tubes and centrifuged at 200×g for 10 min. This yielded […] (PRP). This PRP was allowed to stand for 30 min. for testing at which point it was tested against 400 μg. per ml. of arachidonic acid. […] If the platelets aggregated to arachidonic acid, a dose of collagen that gave a substantial irreversible aggregation (approximately 60-80% transmission) was established. It was then attempted to block the response of collagen with 10 μg. per ml. of indomethacin. […] The ID50 for all unknown compounds was then established. Most of the compounds were tested at rather high concentrations and it was often necessary to place the compound in ethanol into the aggregation cuvet and evaporate the ethanol before testing.
Those that were reported as active were tested at the ID50 dose against 400 μg per ml. of arachidonic acid. […] The compounds are shown to inhibit phospholipase A2 from humans at low dosages.

[3] = target: BEE VENOM PHOSPHOLIPASE A2 (Apis mellifera, UniProt P00630); assay: biochemical; details: pH 8.5, 37° C.
Chain of UniProt P00630 (P00630 34-167 limits assumed): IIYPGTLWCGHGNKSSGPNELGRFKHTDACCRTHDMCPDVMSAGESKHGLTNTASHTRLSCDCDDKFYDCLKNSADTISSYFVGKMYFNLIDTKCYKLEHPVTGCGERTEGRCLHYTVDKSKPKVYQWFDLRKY

[4] = target: SNAKE VENOM PHOSPHOLIPASE A2; assay: coupled phospholipase A2 / soybean lipoxygenase oxygen consumption assay, snake venom enzyme; format: biochemical; details: estimated I50 calculated from a partial inhibition value, pH 8.5, 37° C.
[5] = intraperitoneal, 23-25.2 mg/kg given 30 min. before UV, control 12
[6] = intraperitoneal, 23-25.2 mg/kg given 30 min. before UV, control 18
[7] = intraperitoneal, 23-25.2 mg/kg given 30 min. before UV, control 24
[8] = intraperitoneal, 23-25.2 mg/kg given 30 min. before UV, control 30
[9] = intraperitoneal, 23-25.2 mg/kg given 30 min. before UV, control 50
[10] = intraperitoneal, 23-25.2 mg/kg, control 78
[11] = intraperitoneal, 23-25.2 mg/kg, control 128
[12] = subcutaneous, 60.9-66.1 mg/kg given 30 min. before UV, control 17
[13] = subcutaneous, 60.9-66.1 mg/kg given 30 min. before UV, control 23
[14] = subcutaneous, 60.9-66.1 mg/kg given 30 min. before UV, control 29
[15] = subcutaneous, 60.9-66.1 mg/kg given 30 min. before UV, control 34
[16] = subcutaneous, 60.9-66.1 mg/kg given 30 min. before UV, control 56
[17] = subcutaneous, 60.9-66.1 mg/kg, control 103
[18] = subcutaneous, 60.9-66.1 mg/kg, control 158

Row | Structure (SMILES) | erythema score, 1 hour (UV induced erythema; [5]) | erythema score, 2 hours (UV induced erythema; [6]) | erythema score, 3 hours (UV induced erythema; [7]) | erythema score, 4 hours (UV induced erythema; [8]) | erythema score, 24 hours (UV induced erythema; [9]) | erythema score, (After 4 hours) Total Points (UV induced erythema; [10]) | erythema score, (After 24 hours) Total Points (UV induced erythema; [11]) | erythema score, 1 hour (UV induced erythema; [12]) | erythema score, 2 hours (UV induced erythema; [13]) | erythema score, 3 hours (UV induced erythema; [14]) | erythema score, 4 hours (UV induced erythema; [15]) | erythema score, 24 hours (UV induced erythema; [16]) | erythema score, (After 4 hours) Total Points (UV induced erythema; [17]) | erythema score, (After 24 hours) Total Points (UV induced erythema; [18]) | IC50 [1] [µM] | IC50 [2] [µM] | IC50 [3] [µM] | IC50 [4] [µM]
1 | CO[C@]1(c2ccccc2C)CC[C@H](NCCCC(=O)c2ccc(F)cc2)CC1 [B, Butyrophenone, 4'-fluoro-4-[(c-4-methoxy-4-o-tolylcyclohexyl)-amino]-, hydrochloride, hemihydrate] | 3 | 5 | 5 | 2 | 36 | 15 | 51 | 8 | 7 | 6 | 13 | 33 | 34 | 66 | 10.7 | 183 | – | –
2 | CO[C@]1(c2ccccc2C)CC[C@@H](NCCCC(=O)c2ccc(F)cc2)CC1 [C, Butyrophenone, 4'-fluoro-4-[(t-4-methoxy-4-o-tolylcyclohexyl)-amino]-, hydrochloride] | 8 | 13 | 12 | 12 | 27 | 45 | 72 | 10 | 11 | 9 | 10 | 40 | 39 | 79 | 11.8 | 196 | 404 | 301
3 | O=C(CCCNC1CCC(c2ccc(Cl)cc2)CC1)c1ccc(F)cc1 (stereo not drawn) [H, Butyrophenone, 4[[4-(p-chlorophenyl)cyclohexyl]-amino]-4'-fluoro-, hydro-chloride] | – | – | – | – | – | – | – | 6 | 6 | 7 | 9 | 52 | 28 | 78 | – | – | – | –
4 | O=C(CCCN[C@H]1CC[C@H](c2ccc(C(F)(F)F)cc2)CC1)c1ccc(F)cc1 [A, Butyrophenone, 4'-fluoro-4-[[4-(α,α,α-trifluoro-p-tolyl)-cyclohexyl]amino]-, trans-,] | – | – | – | – | – | – | – | – | – | – | – | – | – | – | 5.1 | – | – | –
5 | O=C(CCCN[C@H]1CC[C@](CO)(c2ccccc2)CC1)c1ccc(F)cc1 [I, Butyropehnone, 4'-fluoro-4-[[4-(hydroxymethyl)-4-phenylcyclohexyl]amino]- cis-, hydrochloride] | – | – | – | – | – | – | – | 2 | 4 | 6 | 7 | 40 | 18 | 58 | 24.3 | – | – | 221
6 | CO[C@]1(c2ccc(C)cc2)CC[C@H](NCCCC(=O)c2ccc(F)cc2)CC1 [D, Butyrophenone, 4'-fluoro-4-[(c-4-methoxy-4-p-tolyl-r-1-cyclohexyl)amino]-, hydrochloride] | – | – | – | – | – | – | – | – | – | – | – | – | – | – | 14.9 | 261 | – | –
7 | CN(CCCC(=O)c1ccc(F)cc1)[C@H]1CC[C@](CO)(c2ccccc2)CC1 [F, Butyrophenone, 4'-fluoro-4-[[c-4-(hydroxy-methyl)-t-4-phenyl-r- -cyclohexyl]methyl-amino]-] | 14 | 12 | 12 | 17 | 60 | 55 | 105 | – | – | – | – | – | – | – | 43.7 | 65.2 | – | –
8 | O=C(CCCN[C@H]1CC[C@](CO)(c2ccccc2)CC1)c1ccc(Cl)cc1 [E, Butyrophenone, 4'-chloro-4-[[c-4-(hydroxy-methyl)-4-phenyl-r-1-yclohexyl]amino]-, hydrochloride] | – | – | – | – | – | – | – | – | – | – | – | – | – | – | 29.8 | – | – | –
9 | O=C(CCCN[C@H]1CC[C@](CO)(c2ccc(Cl)cc2)CC1)c1ccc(F)cc1 [G, Butyrophenone, 4-[[t-4-(p-chlorophenyl)-c-4-(hydroxymethyl)-r-1-cyclo-hexyl]amino]-4'fluoro-, hydrochloride] | – | – | – | – | – | – | – | 12 | 13 | 9 | 13 | 52 | 46 | 98 | 55.3 | 74.3 | – | –
